We go through 2 compounds from patent EP0015817A1, “Piperidine derivatives, process for their preparation and their use in therapeutical compositions” (METABIO-JOULLIE Société anonyme:, priority 1979, dated 1980).

Read-outs that look alike come from different tables or passages of the source.

Data set [1] can be described thus: Acute toxicity (LD50) in mice. To be noted: mouse, in vivo, souris Swiss NMRI, read-out: DL50 (the source's name). As for the experimental part:
La DL50 a été déterminée chez la souris Swiss NMRI sur le bromhydrate de la benzyloxy-4 pipéridine : - voie orale DL50 75 mg/kg - voie I.V. DL50 32,5 mg/kg

For data set [2], the system named is duodénum isolé de rat. Put plainly: Antispasmodic action: antagonism of barium chloride-induced contraction on isolated rat duodenum (Magnus method). The following applies: for IC50: read-out: Concentrations molaires inhibitrices 50 %. As for the experimental part: Les essais sont effectués sur le duodénum isolé de rat en survie dans du liquide de Tyrode oxygéné et à température de 37°C (cuve de 20 ml, bain- marie à organes isolés type Valette).
Le tonus et les mouvements de l'organe isolé sont enregistrés par la méthode de Magnus (R.) (Arch. Ges. Physiol. 1904, 102; 123) à l'aide d'une jauge de contrainte reliée à un enregistreur électronique Electromed.
L'antagonisme exercé par le produit étudié est recherché vis-à-vis des effets contracturants musculotropes du chlorure de baryum.
La papavérine est utilisée comme substance antagoniste de référence.
On détermine la concentration molaire du produit qui diminue de 50 % les effets du chlorure de baryum.

Consider `c1ccc(COC2CCNCC2)cc1` [Benzyloxy-4 pipéridine (bromhydrate), Bromhydrate de benzyloxy-4 pipéridine], for which the LD50 is 32.5 mg/kg in data set [1] (iv, voie I.V.) and 75 mg/kg in data set [1] (po, voie orale). Besides, the IC50 in data set [2] (concentration reducing by 50 % the effects of chlorure de baryum, isolated rat duodenum in oxygenated Tyrode, 37°C) is 18 µM. Further, the “activité antispasmodique comparée à celle de la papavérine” value in data set [2] (qualitative comparison with papavérine, chlorure de baryum contraction, isolated rat duodenum) was “sensiblement égale à celle de la papavérine”.

For the compound `COc1ccc(Cc2nccc3cc(OC)c(OC)cc23)cc1OC` [Papavérine, reference compound], the IC50 in data set [2] (Rattus norvegicus) turned out to be 12.5 µM.
